Results reported in the NIST ThermoML archive (doi:10.1021/je7002786).
Numbers after ± are expanded uncertainties.

Columns and labels:
[1] = DTA
[2] = molar heat capacity at constant pressure; details: 101.33 kPa, Liquid

CCOS(=O)(=O)[O-].CCn1cc[n+](C)c1 [1-ethyl-3-methylimidazolium ethyl sulfate]
Details	Glass transition temperature [°C]
[1]	-78.40 ± 3

[2], Small sample (50 mg) DSC
Details	molar heat capacity at constant pressure [J/K/mol]
283.1 K	387.04 ± 160
293.15 K	409.73 ± 160
303.15 K	432.41 ± 170
313.15 K	455.09 ± 180
323.15 K	477.78 ± 190
333.15 K	500.46 ± 200
343.15 K	523.15 ± 210
353.15 K	545.83 ± 220
363.15 K	568.51 ± 230
373.1 K	591.2 ± 240

CCCCn1cc[n+](C)c1.COS(=O)(=O)[O-] [1-butyl-3-methylimidazolium methyl sulfate]
Details	Normal melting temperature [°C]	molar heat capacity at constant pressure [J/K/mol]
[1], Crystal	-4.10 ± 1	–
[2], 283.1 K	–	226.29 ± 91
[2], 293.15 K	–	246.56 ± 99
[2], 303.15 K	–	266.84 ± 110
[2], 313.15 K	–	287.11 ± 120
[2], 323.15 K	–	307.39 ± 120
[2], 333.15 K	–	327.66 ± 130
[2], 343.15 K	–	347.94 ± 140
[2], 353.15 K	–	368.22 ± 150
[2], 363.15 K	–	388.49 ± 160
[2], 373.1 K	–	408.77 ± 160

Details	Glass transition temperature [°C]
[1]	-91.90 ± 3
